The compounds below were run against T1, humanen CGRP-Rezeptor (Homo sapiens, UniProt O60894+Q16602) (assay: Binding studies with SK-N-MC cell membranes, displacement of 125I-Iodotyrosyl-CGRP). Conditions: SK-N-MC membrane homogenate, 50 pM 125I-Iodotyrosyl-CGRP, 180 min, room temperature.
T1 construct: endogenous in cells; host or cells: SK-N-MC cells (membrane homogenate)
Description: Zum Nachweis der Affinität der voranstehend genannten Verbindungen zu humanen CGRP-Rezeptoren und ihrer antagonistischen Eigenschaften wurden die folgenden Versuche durchgeführt: • A. Bindungsstudien mit (den humanen CGRP-Rezeptor exprimierenden) SK-N-MC-Zellen SK-N-MC-Zellen werden in "Dulbecco's modified Eagle Medium" kultiviert. Das Medium konfluenter Kulturen wird entfernt. Die Zellen werden zweimal mit PBS-Puffer (Gibco 041-04190 M) gewaschen, durch Zugabe von PBS-Puffer, versetzt mit 0.02% EDTA, abgelöst und durch Zentrifugation isoliert. Nach Resuspension in 20 ml "Balanced Salts Solution" [BSS (in mM): NaCl 120, KCl 5.4, NaHCO3 16.2, MgSO4 0.8, NaHPO4 1.0, CaCl2 1.8, D-Glucose 5.5, HEPES 30, pH 7.40] werden die Zellen zweimal bei 100 x g zentrifugiert und in BSS resuspendiert. Nach Bestimmung der Zellzahl werden die Zellen mit Hilfe eines Ultra-Turrax homogenisiert und für 10 Minuten bei 3000 x g zentrifugiert. Der Überstand wird verworfen und das Pellet in Tris-Puffer (10 mM Tris, 50 mM NaCl, 5 mM MgCl2, 1 mM EDTA, pH 7.40), angereichert mit 1% Rinderserum-Albumin und 0.1% Bacitracin, rezentrifugiert und resuspendiert (1 ml / 1000000 Zellen). Das Homogenat wird bei -80°C eingefroren. Die Membranpräparationen sind bei diesen Bedingungen für mehr als 6 Wochen stabil. Nach Auftauen wird das Homogenat 1:10 mit Assay-Puffer (50 mM Tris, 150 mM NaCl, 5 mM MgCl2, 1 mM EDTA, pH 7.40) verdünnt und 30 Sekunden lang mit einem Ultra-Turrax homogenisiert. 230 µl des Homogenats werden für 180 Minuten bei Raumtemperatur mit 50 pM ^125I-Iodotyrosyl-Calcitonin-Gene-Related Peptide (Amersham) und ansteigenden Konzentrationen der Testsubstanzen in einem Gesamtvolumen von 250 µl inkubiert. Die Inkubation wird durch rasche Filtration durch mit Polyethylenimin (0.1%) behandelte GF/B-Glasfaserfilter mittels eines Zellharvesters beendet. Die an Protein gebundene Radioaktivität wird mit Hilfe eines Gammacounters bestimmt. Als nichtspezifische Bindung wird die gebundene Radioaktivität nach Gegenwart von 1 µM humanem CGRP-alpha während der Inkubation definiert. […]

T1 sequence (Q16602 23-461): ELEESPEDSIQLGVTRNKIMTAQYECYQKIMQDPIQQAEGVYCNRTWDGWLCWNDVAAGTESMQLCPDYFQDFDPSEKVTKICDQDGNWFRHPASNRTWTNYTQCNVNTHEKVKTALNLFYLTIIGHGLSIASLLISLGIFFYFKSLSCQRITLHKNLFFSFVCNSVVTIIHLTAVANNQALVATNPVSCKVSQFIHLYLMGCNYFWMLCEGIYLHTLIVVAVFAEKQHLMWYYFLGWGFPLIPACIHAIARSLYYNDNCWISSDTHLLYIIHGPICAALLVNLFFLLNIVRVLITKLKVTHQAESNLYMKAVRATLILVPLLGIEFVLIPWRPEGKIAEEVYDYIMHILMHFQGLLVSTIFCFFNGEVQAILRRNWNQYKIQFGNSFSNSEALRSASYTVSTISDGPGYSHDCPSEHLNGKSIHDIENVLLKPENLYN
T1 sequence (O60894 27-148): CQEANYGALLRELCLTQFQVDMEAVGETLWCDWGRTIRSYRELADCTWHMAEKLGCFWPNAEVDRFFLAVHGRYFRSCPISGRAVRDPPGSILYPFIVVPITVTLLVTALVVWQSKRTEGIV

Row | Ki | Compound
1 | 204 nM | Cn1cc(C(=O)c2cc(N3CCC4(CC3)OC(=O)Nc3ccccc34)ncn2)c2ccccc21 [(3), 1'-(6-(1-Methyl-1H-indol-3-carbonyl)pyrimidin-4-yl)spiro[benzo[d][1,3]oxazin-4,4'-piperidin]-2(1H)-on]
2 | 81 nM | Cn1cc(C(=O)c2cc(N3CCC4(CC3)NC(=O)Nc3ccccc34)ncn2)c2ccccc21 [(1), 1-(6-(1-Methyl-1H-indol-3-carbonyl)pyrimidin-4-yl)-1'H-spiro[piperidin-4,4'-chinazolin]-2'(3'H)-on]
3 | 89 nM | Cn1cc(C(=O)c2cc(Nc3ccc4c(c3)CC3(C4)C(=O)Nc4ncccc43)ncn2)c2ccccc21 (stereo not drawn) [(2), 5-(6-(1-Methyl-1H-indol-3-carbonyl)pyrimidin-4-ylamino)-1,3-dihydrospiro[inden-2,3'-pyrrolo[2,3-b]pyridin]-2'(1'H)-on]

Reference: EP2065386A1, “CGRP antagonists” (Boehringer Ingelheim Pharma GmbH & Co. KG, priority 2007, dated 2009)
